Assay type in all cases: in vivo, C57BL/6JNR male mice
In assay [1] the test system is type 2 diabetes mice (nicotinamide/streptozotocin + high fat diet). As to the kind of experiment: HOMA-IR index of drug-induced diabetic mice. The conditions noted are these: dose not printed, one month. On the procedure: (§1) C57BL/6JNR male mice at 6 weeks of age (purchased from National Laboratory Animal Center) were fed with normal diet for 1 week. Each of the mice was injected intraperitoneally with 240 mg/kg nicotinamide, and after 15 minutes, each of the mice was injected intraperitoneally with 100 mg/kg streptozotocin. Two days later, each of the mice was injected with nicotinamide and streptozotocin with the same dosages and method as shown above, followed by feeding with the high fat diet (60% fat). Two months later, the mice having fasting blood glucose higher than 140 mg/dl and impaired glucose tolerance (which meant that the blood glucose values were not measured within normal range after injecting glucose for 2 hours) were picked to be type 2 diabetes mice.
(§2) The mice were divided into 4 groups which included a control group (supplied with phosphate solution), a metformin (Met) group, a composition A1 with low dose (4 mg/kg/day) group, and a composition A1 with high dose (12 mg/kg/day) group. The weights of the mice were measured every 3 days, and the blood glucose values, oral glucose tolerance assay (OGTT), glycated hemoglobin (HbA1c) and insulin variances of the mice were measured every 4 weeks.
The index of homeostasis model assessment for insulin resistance (HOMA-IR) was calculated from the following formula:
HOMA-IR index=insulin (μU/ml)×glucose (mmol/L)/22.5.

The test system is the same in assay [2]. As to the kind of experiment: Fasting blood glucose of drug-induced diabetic mice. Particulars: dose not printed, one month. On the procedure:
as §1, §2
(§3) The blood glucose values were measured with a Chemistry Analyzer (Hitachi, Ltd., Japan). […] The insulin variance was measured with enzyme-linked immunosorbent assay (ELISA) (Mercodia, Ltd. Sweden).

The test system is the same in assay [3]. As to the kind of experiment: Glycated hemoglobin (HbA1c) of drug-induced diabetic mice. The conditions noted are these: dose not printed, one month. On the procedure: as §1, §2, §3
Assay [4] has the same test system. As to the kind of experiment: Insulin (ELISA) of drug-induced diabetic mice. Particulars: dose not printed, one month. On the procedure:
as §1, §2, §3

Assay [5] has the same test system. Kind of assay: Oral glucose tolerance assay (OGTT) in drug-induced diabetic mice. Particulars: metformin group, dose not given. On the procedure:
as §1, §2, §3

`NCC(=O)O` [Glycine]: the HOMA-IR in assay [1] amounted to 5.23 ± 1.73. Also, the Fasting blood glucose in assay [2] is recorded as 182.88 ± 11.20. Moreover, the “Glycated hemoglobin (HbA1c)” value in assay [3] amounted to 3.71 ± 0.03. Moreover, the insulin in assay [4] is 12.47 ± 2.36.

As to `CN(C)C(=N)N=C(N)N` [Metformin], the “glucose tolerance (OGTT)” value in assay [5] is recorded as “improved”. The values for the HOMA-IR in assay [1] and in assay [1] (listed as metformin) were 4.53 ± 1.42 and 4.53, respectively. In addition, the Fasting blood glucose in assay [2] stood at 169.00 ± 10.77. In assay [3], the “Glycated hemoglobin (HbA1c)” value amounted to 3.57 ± 0.04. Moreover, the insulin in assay [4] was determined as 11.11 ± 6.47.

(Values after patent publication US20170007568A1, “USE OF COMPOSITION CONTAINING IRON (II) AMINO ACID CHELATE IN PREPARATION OF DRUG FOR AMELIORATING DIABETES” (PROFEAT BIOTECHNOLOGY CO., LTD., priority 2014, published 2017).)
